For 22 molecules, IC50 and inhibition results are on record in patent publication US8853203B2, “Diazepinone derivatives” (Novartis AG, priority 2012, dated 2014).

The target in one experiment is human mGluR5a receptors (Homo sapiens (Human), UniProt P41594). Briefly: inhibition of glutamate-induced elevation of intracellular calcium in L(tk-) cells expressing human mGluR5a. As to conditions: for IC50: glutamate-induced intracellular calcium elevation, L(tk-) cells expressing human mGluR5a, read-out: mGluR5 IC50; for inhibition at 10 µM: LTK, read-out: mGluR5 % inhibition at 10 μM. Format: cell-based. The source says: Activity of compounds of the present invention was examined by determination to what extent the glutamate-induced elevation of the intracellular calcium concentration in L(tk-) cells expressing human mGluR5a receptors (see L. P. Daggett et al., Neuropharm. Vol. 34, pages 871-886, 1995) is inhibited by utilizing methods as described e.g. by L. P. Daggett et al., Neuropharm. Vol. 34, pages 871-886 (1995) and P. J. Flor et al., J. Neurochem. Vol. 67, pages 58-63 (1996).

For the next experiment, the target named is human mGluR1 (Homo sapiens (Human), UniProt Q13255). Briefly: mGluR1 antagonism, L-glutamate induced intracellular calcium increase (FLIPR) in CHO cells stably expressing human mGluR1. The class given is cell-based. As to conditions: for IC50: L-glutamate induced intracellular calcium, CHO cells expressing human mGluR1, FLIPR; for inhibition at 10 µM: CHO. An excerpt:
Activity of compounds of the present invention with respect to mGluR1 antagonism was examined by an assay based on measurements of L-glutamate induced intracellular calcium increases using a 96 well plate-based Fluorometric Imaging Plate Reader (FLIPR), and CHO cells stably expressing human mGluR1. L-glutamate induced robust calcium responses via human mGluR1 in a concentration-dependent manner and in the low micromolar range. The table below represents IC50 values of the inhibition of the glutamate-induced elevation of the intracellular calcium concentration.

Structures are written as SMILES.

Sequence of human mGluR1 (Q13255 19-1194): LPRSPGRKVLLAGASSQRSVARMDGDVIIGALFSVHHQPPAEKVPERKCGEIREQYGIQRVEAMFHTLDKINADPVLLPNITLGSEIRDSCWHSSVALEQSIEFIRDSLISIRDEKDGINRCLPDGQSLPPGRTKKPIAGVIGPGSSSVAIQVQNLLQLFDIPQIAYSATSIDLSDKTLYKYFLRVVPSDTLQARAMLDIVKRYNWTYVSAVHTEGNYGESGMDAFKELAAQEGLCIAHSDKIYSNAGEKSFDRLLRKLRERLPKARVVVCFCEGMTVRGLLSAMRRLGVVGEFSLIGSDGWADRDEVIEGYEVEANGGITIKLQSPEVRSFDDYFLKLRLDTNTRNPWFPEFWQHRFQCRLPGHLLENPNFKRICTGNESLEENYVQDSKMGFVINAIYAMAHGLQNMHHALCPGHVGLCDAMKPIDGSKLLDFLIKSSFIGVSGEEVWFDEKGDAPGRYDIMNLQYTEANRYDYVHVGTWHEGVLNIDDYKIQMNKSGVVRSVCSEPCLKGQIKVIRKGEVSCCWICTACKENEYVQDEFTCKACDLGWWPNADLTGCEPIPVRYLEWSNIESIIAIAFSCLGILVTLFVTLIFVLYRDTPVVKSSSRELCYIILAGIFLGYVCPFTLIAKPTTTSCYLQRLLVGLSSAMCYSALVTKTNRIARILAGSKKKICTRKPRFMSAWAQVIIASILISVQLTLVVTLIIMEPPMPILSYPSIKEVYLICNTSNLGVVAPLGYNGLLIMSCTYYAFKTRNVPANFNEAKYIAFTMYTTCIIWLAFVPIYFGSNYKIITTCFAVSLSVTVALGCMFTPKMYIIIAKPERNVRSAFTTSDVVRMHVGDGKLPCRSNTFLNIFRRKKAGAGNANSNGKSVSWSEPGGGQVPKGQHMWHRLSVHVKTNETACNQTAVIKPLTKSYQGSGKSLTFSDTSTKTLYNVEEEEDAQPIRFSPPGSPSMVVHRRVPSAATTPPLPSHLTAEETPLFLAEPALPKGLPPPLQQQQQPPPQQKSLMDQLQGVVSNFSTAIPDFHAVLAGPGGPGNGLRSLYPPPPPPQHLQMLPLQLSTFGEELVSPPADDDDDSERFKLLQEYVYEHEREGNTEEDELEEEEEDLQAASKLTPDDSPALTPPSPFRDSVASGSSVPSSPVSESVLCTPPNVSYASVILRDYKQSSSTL
Sequence of human mGluR5a receptors (P41594 other isoform, or with tags, fused parts or gaps): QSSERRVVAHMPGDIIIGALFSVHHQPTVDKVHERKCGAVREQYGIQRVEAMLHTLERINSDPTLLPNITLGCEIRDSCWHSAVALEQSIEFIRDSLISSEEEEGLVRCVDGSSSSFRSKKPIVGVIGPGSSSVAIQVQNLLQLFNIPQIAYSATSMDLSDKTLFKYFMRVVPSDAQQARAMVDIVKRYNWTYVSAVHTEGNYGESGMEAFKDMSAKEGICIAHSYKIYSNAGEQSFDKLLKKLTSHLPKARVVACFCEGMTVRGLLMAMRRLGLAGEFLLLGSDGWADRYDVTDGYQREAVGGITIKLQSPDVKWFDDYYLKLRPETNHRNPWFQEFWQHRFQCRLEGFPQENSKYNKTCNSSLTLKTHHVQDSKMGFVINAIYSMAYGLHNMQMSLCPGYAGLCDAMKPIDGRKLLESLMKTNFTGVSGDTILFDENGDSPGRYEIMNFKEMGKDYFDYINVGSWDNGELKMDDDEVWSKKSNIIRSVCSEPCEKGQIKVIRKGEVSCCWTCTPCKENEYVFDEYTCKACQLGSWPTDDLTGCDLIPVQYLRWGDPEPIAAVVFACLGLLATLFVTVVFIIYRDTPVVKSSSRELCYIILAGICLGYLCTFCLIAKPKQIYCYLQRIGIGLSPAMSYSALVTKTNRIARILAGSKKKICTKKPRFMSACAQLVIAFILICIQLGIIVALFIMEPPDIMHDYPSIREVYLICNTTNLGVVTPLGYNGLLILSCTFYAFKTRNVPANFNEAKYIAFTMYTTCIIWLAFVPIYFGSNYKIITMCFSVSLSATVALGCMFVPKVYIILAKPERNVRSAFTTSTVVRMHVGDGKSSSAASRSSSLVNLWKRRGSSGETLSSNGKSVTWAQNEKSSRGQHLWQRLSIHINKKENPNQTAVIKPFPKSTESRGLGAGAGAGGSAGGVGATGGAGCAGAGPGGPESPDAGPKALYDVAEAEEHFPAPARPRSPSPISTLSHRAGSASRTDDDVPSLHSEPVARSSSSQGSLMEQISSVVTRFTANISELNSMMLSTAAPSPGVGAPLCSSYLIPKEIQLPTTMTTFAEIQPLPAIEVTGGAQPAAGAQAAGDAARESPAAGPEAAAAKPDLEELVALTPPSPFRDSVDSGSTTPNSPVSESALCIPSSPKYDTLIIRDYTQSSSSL

Turning to `O=C1CN=C(c2ccoc2)C=C2c3cccc(-c4ccncc4)c3CCN12` [Example 51, 2-(furan-3-yl)-9-(pyridin-4-yl)-7,8-dihydro-[1,4]diazepino[7,1-a]isoquinolin-5(4H)-one], the IC50 at human mGluR5a receptors is 35 nM; on human mGluR1 it was over 10000 nM.

As to `COc1cc(C2=NCC(=O)N3CCc4c(cccc4-c4cnccn4)C3=C2)ccn1` [Example 52, 2-(2-methoxypyridin-4-yl)-9-(pyrazin-2-yl)-7,8-dihydro-[1,4]diazepino[7,1-a]isoquinolin-5(4H)-one], the IC50 at human mGluR5a receptors is 66 nM; at human mGluR1 it was over 10000 nM.

Take `COc1cc(C2=NCC(=O)N3CCc4c(cccc4-c4ccc(F)nc4)C3=C2)ccn1` [Example 53, 9-(6-fluoropyridin-3-yl)-2-(2-methoxypyridin-4-yl)-7,8-dihydro-[1,4]diazepino[7,1-a]isoquinolin-5(4H)-one]: the IC50 on human mGluR5a receptors is 7 nM; at human mGluR1, over 10000 nM.

For the molecule `COc1cc(C2=NCC(=O)N3CCc4c(cccc4-c4ccncc4F)C3=C2)ccn1` [Example 54, 9-(3-fluoropyridin-4-yl)-2-(2-methoxypyridin-4-yl)-7,8-dihydro-[1,4]diazepino[7,1-a]isoquinolin-5(4H)-one], the values for the IC50 at human mGluR5a receptors and at human mGluR1 were 11 nM and over 10000 nM, respectively.

In the case of `Cn1cnc(C2=NCC(=O)N3CCc4c(cccc4-c4ccncc4)C3=C2)c1` [Example 55, 2-(1-methyl-1H-imidazol-4-yl)-9-(pyridin-4-yl)-7,8-dihydro-[1,4]diazepino[7,1-a]isoquinolin-5(4H)-one], the IC50 on human mGluR5a receptors is 4900 nM; at human mGluR1, over 10000 nM.

Consider `Cc1cc(-c2cccc3c2CCN2C(=O)CN=C(c4ccn(C)n4)C=C32)ccn1` [Example 56, 2-(1-methyl-1H-pyrazol-3-yl)-9-(2-methylpyridin-4-yl)-7,8-dihydro-[1,4]diazepino[7,1-a]isoquinolin-5(4H)-one], for which the inhibition at 10 µM stood at 24% at human mGluR5a receptors and 0% at human mGluR1.

With `COc1cccc(C2=NCC(=O)N3CCc4c(cccc4C4CCCO4)C3=C2)c1` (centres unmarked) [Example 57, 2-(3-methoxyphenyl)-9-(tetrahydrofuran-2-yl)-7,8-dihydro-[1,4]diazepino[7,1-a]isoquinolin-5(4H)-one], the IC50 at human mGluR5a receptors is 14 nM; on human mGluR1, 4500 nM.

Consider `COc1cccc2c1CCN1C(=O)CN=C(c3cccc(O)n3)C=C21` [Example 58, 9-methoxy-2-(6-oxo-1,6-dihydropyridin-2-yl)-7,8-dihydro-[1,4]diazepino[7,1-a]isoquinolin-5(4H)-one], for which, at human mGluR5a receptors, the inhibition at 10 µM is 26%. Besides, on human mGluR1, the IC50 stood at 8900 nM.

As for `COc1cccc(C2=NCC(=O)N3CCc4c(ccc(OC)c4OC)C3=C2)c1` [Example 59, 9,10-dimethoxy-2-(3-methoxyphenyl)-7,8-dihydro-[1,4]diazepino[7,1-a]isoquinolin-5(4H)-one], the inhibition at 10 µM at human mGluR5a receptors was determined as 23%. Moreover, the IC50 at human mGluR1 stood at 6500 nM.

For `COc1cccc2c1CCN1C(=O)CN=C(c3cc[nH]c(=O)c3)C=C21` [Example 60, 9-methoxy-2-(2-oxo-1,2-dihydropyridin-4-yl)-7,8-dihydro-[1,4]diazepino[7,1-a]isoquinolin-5(4H)-one], the figures for the inhibition at 10 µM at human mGluR5a receptors and on human mGluR1 were 27% and 15%, respectively.

On to `COc1cccc2c1CCN1C(=O)CN=C(n3cnc(C(C)C)c3)C=C21` [Example 61, 2-(4-isopropyl-1H-imidazol-1-yl)-9-methoxy-7,8-dihydro-[1,4]diazepino[7,1-a]isoquinolin-5(4H)-one], for which the IC50 on human mGluR5a receptors was determined as 345 nM; at human mGluR1, 3100 nM.

In the case of `Cc1cn(C2=NCC(=O)N3CCc4c(Cl)cccc4C3=C2)cn1` [Example 62, 9-chloro-2-(4-methyl-1H-imidazol-1-yl)-7,8-dihydro-[1,4]diazepino[7,1-a]isoquinolin-5(4H)-one], the results for the IC50 at human mGluR5a receptors and on human mGluR1 were 595 nM and 1600 nM, respectively.

With `O=C1CN=C(n2cnc(C(F)(F)F)c2)C=C2c3cccc(I)c3CCN12` [Example 63, 9-iodo-2-(4-(trifluoromethyl)-1H-imidazol-1-yl)-7,8-dihydro-[1,4]diazepino[7,1-a]isoquinolin-5(4H)-one], the IC50 was determined as 535 nM on human mGluR5a receptors and 3200 nM on human mGluR1.

Turning to `N#Cc1cn(C2=NCC(=O)N3CCc4c(I)cccc4C3=C2)cn1` [Example 64, 1-(9-iodo-5-oxo-4,5,7,8-tetrahydro-[1,4]diazepino[7,1-a]isoquinolin-2-yl)-1H-imidazole-4-carbonitrile], the IC50 at human mGluR5a receptors is 4300 nM; on human mGluR1, over 10000 nM.

Regarding `O=C1CN=C(n2cnc(CO)c2)C=C2c3cccc(I)c3CCN12` [Example 65, 2-(4-(hydroxymethyl)-1H-imidazol-1-yl)-9-iodo-7,8-dihydro-[1,4]diazepino[7,1-a]isoquinolin-5(4H)-one], the IC50 on human mGluR5a receptors came to 210 nM; at human mGluR1, 1500 nM.

As to `COC(=O)c1cn(C2=NCC(=O)N3CCc4c(I)cccc4C3=C2)cn1` [Example 66, methyl 1-(9-iodo-5-oxo-4,5,7,8-tetrahydro-[1,4]diazepino[7,1-a]isoquinolin-2-yl)-1H-imidazole-4-carboxylate], the IC50 on human mGluR5a receptors is 780 nM; at human mGluR1 it was over 10000 nM.

In the case of `Cc1cn(C2=NCC(=O)N3CCc4c(I)cccc4C3=C2)c(C)n1` [Example 67, 2-(2,4-dimethyl-1H-imidazol-1-yl)-9-iodo-7,8-dihydro-[1,4]diazepino[7,1-a]isoquinolin-5(4H)-one], the IC50 at human mGluR5a receptors was 715 nM; on human mGluR1 it was 1400 nM.

For the molecule `CCOC(=O)c1cn(C2=NCC(=O)N3CCc4c(I)cccc4C3=C2)cn1` [Example 68, ethyl 1-(9-iodo-5-oxo-4,5,7,8-tetrahydro-[1,4]diazepino[7,1-a]isoquinolin-2-yl)-1H-imidazole-4-carboxylate], the results for the IC50 at human mGluR5a receptors and at human mGluR1 were 1700 nM and over 10000 nM, respectively.

In the case of `O=C1CN=C(n2cnc(C3CCC3)c2)C=C2c3cccc(-n4cccn4)c3CCN12` [Example 69, 2-(4-cyclobutyl-1H-imidazol-1-yl)-9-(1H-pyrazol-1-yl)-7,8-dihydro-[1,4]diazepino[7,1-a]isoquinolin-5(4H)-one], the IC50 at human mGluR5a receptors is 20 nM; on human mGluR1, over 10000 nM.

`O=C1CN=C(n2cnc(C3CCC3)c2)C=C2c3cccc(N4CCOCC4)c3CCN12` [Example 70, 2-(4-cyclobutyl-1H-imidazol-1-yl)-9-morpholino-7,8-dihydro-[1,4]diazepino[7,1-a]isoquinolin-5(4H)-one]: the IC50 was 49 nM on human mGluR5a receptors and over 10000 nM on human mGluR1.

For `COCc1cn(C2=NCC(=O)N3CCc4c(cccc4-c4nccs4)C3=C2)cn1` [Example 71, 2-(4-(methoxymethyl)-1H-imidazol-1-yl)-9-(thiazol-2-yl)-7,8-dihydro-[1,4]diazepino[7,1-a]isoquinolin-5(4H)-one], the IC50 came out at 27 nM at human mGluR5a receptors and 6400 nM at human mGluR1.

For `CC(C)c1cn(C2=NCC(=O)N3CCc4c(cccc4-c4cnn(C)c4)C3=C2)cn1` [Example 72, 2-(4-isopropyl-1H-imidazol-1-yl)-9-(1-methyl-1H-pyrazol-4-yl)-7,8-dihydro-[1,4]diazepino[7,1-a]isoquinolin-5(4H)-one], the IC50 is 275 nM at human mGluR5a receptors and over 10000 nM at human mGluR1.
